How the values were obtained:
MV 4-11 cells = test: Cell viability, Cell titer-glo assay; format: cell-based; settings: for EC50: Homo sapiens, MV4-11, MV 4-11 cells, wash
Procedure: MV 4-11 cells were dosed first with alvocidib (80 nM) or DMSO for 24 hours followed by a wash step. Following the wash step, the cells were dosed with azacitidine (30 μM to 0.001 μM) for an additional 72 hours, Measurement of cell viability was taken at 96 hours from the initial dose (72 hours after the wash step) and normalized to data collected for cells dosed with alvocidib only. Cell viability was then assessed in a Cell titer-glo assay, according to manufacturer protocol. Cell viability was then plotted against concentration on a logarithmic scale (FIG. 2).
FIGS. 5A and 5B present data from combination treatment of Alvocidib and decitabine in MV4-11 cells. MV4-11 cells were first treated for 96 hours with alvocidib+decitabine according to the general procedures of Example 2 at the concentrations indicated in FIG. 5A. […] Here, a change of nearly 10-fold in the IC50 (μM) of decitabine with the addition of alvocidib (100 nM) was observed when alvocidib was administered prior to decitabine.

MCL-1 = MCL-1 expression by western blotting in MV4-11 cells; format: cell-based
Procedure: An AML cell line, MV-4-11, expresses MCL-1. MCL-1 is a key anti-apoptotic protein in MV-4-11 cells. Alvocidib, a CDK9 inhibitor, lowers the expression of MCL-1, which is already well documented in the literature. Alvocidib down-regulates MCL-1 in a dose dependent manner (FIG. 1A). The dose dependence is observed by monitoring the relative expression of MCL-1 compared to β-actin when cells are dosed with alvocidib at concentrations of 0-8 μM. MV4-11 cells were treated with Alvocidib for 16 hrs in vitro, Following treatment, cells were harvested and prepared using standard western blotting technique for immuno-detection of MCL-1 and β-actin expression.
In addition, alvocidib also down-regulates MCL-1 in a time-dependent manner (FIG. 1B). The time dependence is observed by monitoring the relative expression of MCL-1 compared top-actin over time. The relative expression of MCL-1 was measured at 0.5-48 hour time points after dosing with 80 nM of alvocidib.
MV4-11 cells were treated with 80 nM Alvocidib in vitro for the times indicated. Following treatment, cells were harvested and prepared using standard western blotting technique for immunodetection of MCL-1 and β-actin expression.

## Nc1ncn([C@H]2C[C@H](O)[C@@H](CO)O2)c(=O)n1 [decitabine]
MV 4-11 cells; MV4-11 cells, alvocidib 100 nM 24 hours pre-treatment, then decitabine 72 hours
  Change in IC50 of decitabine with the addition of alvocidib: ~10 fold

## CN1CC[C@H](c2c(O)cc(O)c3c(=O)cc(-c4ccccc4Cl)oc23)[C@H](O)C1 [Alvocidib]
MCL-1; 80 nM, 1 hour post-treatment
  MCL-1 expression compared to β-actin: reduced MCL-1 expression
MCL-1; 80 nM, 16 hrs
  MCL-1 expression compared to β-actin: nearly completely blocked
MCL-1; 80 nM, up to 48 hours following treatment
  MCL-1 expression compared to β-actin: inhibition of expression was maintained
MCL-1; 0.1 μM, 16 hrs
  MCL-1 expression compared to β-actin: reduced MCL-1 expression
MCL-1; 1 μM, 16 hrs
  MCL-1 expression compared to β-actin: completely blocked expression

## Nc1ncn([C@@H]2O[C@H](CO)[C@@H](O)[C@H]2O)c(=O)n1 [azacitidine]
MV 4-11 cells; DMSO 24 hours, then azacitidine only 72 hours
  EC50: 1780 nM
MV 4-11 cells; alvocidib 80 nM 24 hours, then azacitidine 72 hours, normalized to alvocidib only
  EC50: 641 nM

Source: patent US10835537B2, “Combination therapies for treatment of cancer” (Sumitomo Dainippon Pharma Oncology, Inc., priority 2015, dated 2020)
